In US12281125B2, “Rapamycin derivatives” (NOVARTIS AG, priority 2018, dated 2025):

Tests used:
FKBP52 = target: T1, FKBP52 (Homo sapiens, UniProt Q02790); assay: SPR assay, binding affinity to FKBP52; conditions: equilibrium dissociation constant
T1 construct: made in house; host or cells: E. coli
T1 sequence (Q02790 1-459): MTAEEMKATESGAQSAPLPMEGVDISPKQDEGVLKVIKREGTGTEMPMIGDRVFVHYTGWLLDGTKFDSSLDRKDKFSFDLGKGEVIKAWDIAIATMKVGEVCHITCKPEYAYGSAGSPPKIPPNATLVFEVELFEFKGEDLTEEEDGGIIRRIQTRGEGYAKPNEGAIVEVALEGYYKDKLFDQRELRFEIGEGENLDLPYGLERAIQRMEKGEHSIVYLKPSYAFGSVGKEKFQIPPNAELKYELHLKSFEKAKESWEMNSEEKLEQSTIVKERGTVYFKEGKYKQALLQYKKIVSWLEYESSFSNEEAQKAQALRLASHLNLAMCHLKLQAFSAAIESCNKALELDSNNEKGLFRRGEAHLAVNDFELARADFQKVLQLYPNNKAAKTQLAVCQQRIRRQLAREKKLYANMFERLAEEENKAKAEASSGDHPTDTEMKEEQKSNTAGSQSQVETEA
Procedure: N-terminal avi-his6-tagged FKBP fusion proteins were expressed in E. coli and purified with nickel chromatography using standard procedures. Biotinylated his-avi-FKBPs were immobilized on a streptavidin chip using a Biacore 8K (GE Healthcare). To determine the kinetics-affinity of the rapalogs for FKBPs, rapalogs were diluted in DMSO to 50× working concentration. Next, 3.1 uLs of each rapalog solution was added to 150 uLs of buffer (50 mM Tris pH 7.5/150 mM NaCl/0.01% Tween 20/1 mM DTT) in a 384 deep well plate (greiner bio-one/78127) and mixed using a Biomek FX. The rapalog solution gradients (6 concentrations/2 fold dilutions, 3.1-100 nM or 31-1000 nM or 310-10000 nM) were then injected at 45 uL/min for 120 seconds: contact time and dissociation time was 1800 seconds in running buffer (50 mM Tris pH 7.5/150 mM NaCl/0.01% Tween 20/1 mM DTT/2% DMSO). The single-cycle kinetics data were fit to a 1:1 binding model to measure the association rate ka (1/Ms), the dissociation rate kd (1/s) and the affinity KD (M). […] 3.1 uLs of the 500 μM rapalog solutions were added to 150 uLs of the mTOR samples in a 384 deep well plate (greiner bio-one/78127) and mixed using a Biomek FX. The mTOR solution gradients were then injected at 45 uL/min for 120 seconds: contact time and dissociation time was 1800 seconds in running buffer (50 mM Tris pH 7.5/150 mM NaCl/0.01% Tween 20/1 mM DTT/2% DMSO). The single-cycle kinetics data was fit to a 1:1 binding model to measure the association rate ka (1/Ms), the dissociation rate kd (1/s) and the apparent affinity KD (M) for ternary complex formation.
The equilibrium dissociation constants (KD) to FKBP12, FKBP51, and FKBP52 are shown below in Table 6.

FKBP51 = target: T2, FKBP51 (Homo sapiens, UniProt Q13451); assay: SPR assay, binding affinity to FKBP51; conditions: equilibrium dissociation constant
T2 construct: made in house; host or cells: E. coli
T2 sequence (Q13451 1-457): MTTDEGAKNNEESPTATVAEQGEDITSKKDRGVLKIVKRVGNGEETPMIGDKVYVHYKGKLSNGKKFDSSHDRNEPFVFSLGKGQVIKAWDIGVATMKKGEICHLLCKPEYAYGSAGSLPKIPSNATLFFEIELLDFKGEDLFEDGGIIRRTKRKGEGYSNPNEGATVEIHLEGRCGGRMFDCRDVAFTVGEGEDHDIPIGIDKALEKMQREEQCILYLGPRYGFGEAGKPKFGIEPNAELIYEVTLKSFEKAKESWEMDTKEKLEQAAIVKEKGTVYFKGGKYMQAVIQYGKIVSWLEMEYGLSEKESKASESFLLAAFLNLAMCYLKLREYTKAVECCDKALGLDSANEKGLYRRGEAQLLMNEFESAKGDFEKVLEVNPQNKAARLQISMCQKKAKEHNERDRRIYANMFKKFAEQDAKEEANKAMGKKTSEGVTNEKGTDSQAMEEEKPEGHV
Source text: (§1) N-terminal avi-his6-tagged FKBP fusion proteins were expressed in E. coli and purified with nickel chromatography using standard procedures. Biotinylated his-avi-FKBPs were immobilized on a streptavidin chip using a Biacore 8K (GE Healthcare). […] The single-cycle kinetics data were fit to a 1:1 binding model to measure the association rate ka (1/Ms), the dissociation rate kd (1/s) and the affinity KD (M). […] The single-cycle kinetics data was fit to a 1:1 binding model to measure the association rate ka (1/Ms), the dissociation rate kd (1/s) and the apparent affinity KD (M) for ternary complex formation. The equilibrium dissociation constants (KD) to FKBP12, FKBP51, and FKBP52 are shown below in Table 6.

[1] = tested on: mTORc1 signaling, pS6 (Ser240/244) in MEF TSCl−/− cells; assay: Cell-based assay for rapalog potency (pS6) in MEF TSCl−/− cells; conditions: Mus musculus, 2 hours treatment, average from multiple assays
Procedure: Rapalog potency was determined using MEF TSCl−/− cell based assay. MEF TSCl−/− cells are Mouse Embryonic Fibroblasts deficient in Tuberous sclerosis protein—TSCl, which negatively regulates mTORc1 signaling and thus display constitutive mTORc1 activation, resulting in phosphorylation (activation) of downstream molecules. This cell-based assay is used to measure inhibition (de-phosphorylation) of S6 and 4EBP1 by rapalogs or other mTOR inhibitors.
MEF TSCl−/− cells were plated on Poly-D-lysine coated 384 well Griener clear bottom plates and incubated overnight at 37° C., 5% CO2. On the following day, cells were washed 8 times with “Hard starve” solution (1 L DPBS+1 g D-(+) glucose+10 ml of 7.5% Sodium Bicarbonate+20 ml of 1M HEPES) and incubated for further 2 hours in the same solution. Cells were next treated with compounds with decreasing concentrations (8 points at 3.16 fold dilutions) and incubated for 2 hours at 37° C., 5% CO2. Cells were fixed with 4% paraformaldehyde for 30 min and washed 5 times with TBS-EDTA followed by immuno-staining with fluorescent tag labeled antibodies for pS6 (Ser240/244) (Cell Signaling #9468) and p4EBP1 (Thr 37/46) (Cell Signaling #5123). Nuclei were visualized with Hoechst (ThermoFisher Scientific #H3570) staining. Cells were imaged (InCell 600) using respective fluorescence channels and the potency of mTOR inhibitors was defined by pS6 IC50 (nM).
In vitro potency of mTOR inhibitors was defined by pS6 IC50 (nM) in MEF TSCl−/− cells.
IC50 values are calculated as the average from multiple assays.

FKBP12 = target: T3, FKBP12 (Homo sapiens, UniProt P62942); assay: SPR assay, binding affinity to FKBP12; conditions: equilibrium dissociation constant
T3 construct: made in house; host or cells: E. coli
T3 sequence (P62942 whole entry): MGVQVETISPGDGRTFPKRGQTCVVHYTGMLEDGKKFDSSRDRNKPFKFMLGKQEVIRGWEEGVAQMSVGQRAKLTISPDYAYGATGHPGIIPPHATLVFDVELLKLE
Source text: as §1

SMILES | Kd (FKBP52) | Kd (FKBP51) | IC50 [1] | Kd (FKBP12)
CO[C@@H]1C[C@H](C[C@@H](C)[C@@H]2CC[C@H](C)/C=C(\C)[C@@H](O)[C@@H](OC)C(=O)[C@H](C)C[C@H](C)/C=C/C=C/C=C(\C)C(N(C)S(C)(=O)=O)C[C@@H]3CC[C@@H](C)[C@@](O)(O3)C(=O)C(=O)N3CCCC[C@H]3C(=O)O2)CC[C@H]1O (single isomer, unassigned) [Compound 42] | 1380 nM | 1230 nM | 0.3 nM | 6.5 nM
CCS(=O)(=O)N[C@H]1C[C@@H]2CC[C@@H](C)[C@@](O)(O2)C(=O)C(=O)N2CCCC[C@H]2C(=O)O[C@H]([C@H](C)C[C@@H]2CC[C@@H](O)[C@H](OC)C2)CC[C@H](C)/C=C(\C)[C@@H](O)[C@@H](OC)C(=O)[C@H](C)C[C@H](C)/C=C/C=C/C=C/1C [Compound 3] | 61 nM | 40 nM | 0.26 nM | 0.2 nM
CO[C@@H]1C[C@H](C[C@@H](C)[C@@H]2CC[C@H](C)/C=C(\C)[C@@H](O)[C@@H](OC)C(=O)[C@H](C)C[C@H](C)/C=C/C=C/C=C(\C)[C@H](NS(=O)(=O)CCCCl)C[C@@H]3CC[C@@H](C)[C@@](O)(O3)C(=O)C(=O)N3CCCC[C@H]3C(=O)O2)CC[C@H]1O [Compound 18] | 436 nM | 573 nM | 6.6 nM | 0.73 nM
CO[C@@H]1C[C@H](C[C@@H](C)[C@@H]2CC[C@H](C)/C=C(\C)[C@@H](O)[C@@H](OC)C(=O)[C@H](C)C[C@H](C)/C=C/C=C/C=C(\C)[C@@H](NS(C)(=O)=O)C[C@@H]3CC[C@@H](C)[C@@](O)(O3)C(=O)C(=O)N3CCCC[C@H]3C(=O)O2)CC[C@H]1OCCO [Compound 26] | 80 nM | 47 nM | 0.086 nM | 0.83 nM

Continued, values first:

Kd (FKBP52) | Kd (FKBP51) | IC50 [1] | Kd (FKBP12) | SMILES
9.8 nM | 11 nM | 0.55 nM | 0.061 nM | CO[C@@H]1C[C@H](C[C@@H](C)[C@@H]2CC[C@H](C)/C=C(\C)[C@@H](O)[C@@H](OC)C(=O)[C@H](C)C[C@H](C)/C=C/C=C/C=C(\C)[C@H](NS(C)(=O)=O)C[C@@H]3CC[C@@H](C)[C@@](O)(O3)C(=O)C(=O)N3CCCC[C@H]3C(=O)O2)CC[C@H]1O [Compound 1]
256 nM | 315 nM | 1.2 nM | 0.55 nM | CCS(=O)(=O)N[C@@H]1C[C@@H]2CC[C@@H](C)[C@@](O)(O2)C(=O)C(=O)N2CCCC[C@H]2C(=O)O[C@H]([C@H](C)C[C@@H]2CC[C@@H](O)[C@H](OC)C2)CC[C@H](C)/C=C(\C)[C@@H](O)[C@@H](OC)C(=O)[C@H](C)C[C@H](C)/C=C/C=C/C=C/1C [Compound 4]
63 nM | 45 nM | 0.94 nM | 0.29 nM | CO[C@@H]1C[C@H](C[C@@H](C)[C@@H]2CC[C@H](C)/C=C(\C)[C@@H](O)[C@@H](OC)C(=O)[C@H](C)C[C@H](C)/C=C/C=C/C=C(\C)[C@@H](NS(=O)(=O)C3CC3)C[C@@H]3CC[C@@H](C)[C@@](O)(O3)C(=O)C(=O)N3CCCC[C@H]3C(=O)O2)CC[C@H]1O [Compound 11]
135 nM | 117 nM | 1.1 nM | 0.39 nM | CO[C@@H]1C[C@H](C[C@@H](C)[C@@H]2CC[C@H](C)/C=C(\C)[C@@H](O)[C@@H](OC)C(=O)[C@H](C)C[C@H](C)/C=C/C=C/C=C(\C)[C@H](NS(=O)(=O)C3CC3)C[C@@H]3CC[C@@H](C)[C@@](O)(O3)C(=O)C(=O)N3CCCC[C@H]3C(=O)O2)CC[C@H]1O [Compound 12]
90 nM | 25 nM | 0.52 nM | 0.54 nM | CO[C@@H]1C[C@H](C[C@@H](C)[C@@H]2CC[C@H](C)/C=C(\C)[C@@H](O)[C@@H](OC)C(=O)[C@H](C)C[C@H](C)/C=C/C=C/C=C(\C)[C@@H](NS(C)(=O)=O)C[C@@H]3CC[C@@H](C)[C@@](O)(O3)C(=O)C(=O)N3CCCC[C@H]3C(=O)O2)CC[C@H]1OP(C)(C)=O [Compound 24]
